Columns and labels:
MRP2 = details: after added probenecid (MRP2 inhibitor); ref "Studies have found", no number given; cited from earlier work
[1] = Stability of PUR in rat plasma (QC samples, four storage conditions); assay type: in vitro ADME; details: for Stability (RE, %) Postextraction: extracted rat plasma sample, auto sampler 4°C for 24 h; for Stability (RE, %) Postextraction / Stability (RE, %) 23°C–28°C/24 h / Stability (RE, %) −20°C/30 day / Stability (RE, %) Freeze-thaw (3 cycles): n = 3; for Stability (RE, %) 23°C–28°C/24 h / Stability (RE, %) −20°C/30 day / Stability (RE, %) Freeze-thaw (3 cycles): rat plasma; for Stability (RE, %) Freeze-thaw (3 cycles): −20°C to 25°C
Procedure: The stock solutions of PUR at a concentration of 200 μg/mL were prepared with methanol. A series of working solutions (4000, 1000, 400, 200, 100, and 40 ng/mL) were then prepared by diluting the stock solution with methanol. A 100 μg/mL IS stock solution was also prepared with methanol. A working solution of IS was prepared at a concentration of 100 ng/mL by diluting the stock solution with methanol. A standard calibration curve was prepared by adding 20 μL of the abovementioned PUR working solution and 20 μL of the IS working solution to 100 μL of blank plasma. The final plasma concentrations of PUR were in the concentration ranges of 800, 200, 80, 40, 20, and 8 ng/mL. QC samples of low, medium, and high concentrations (8, 80, and 720 ng/mL) of PUR were also prepared following the same procedure as described above. All solutions were kept at 4°C until use.
The stability of the PUR in rat plasma was investigated by analyzing QC samples under four different storage conditions, including three freeze-thaw cycles, room temperature 23−28°C for 24 h, −20°C for 30 days, and postextraction stability after the extracted samples being stored in the auto sampler at the temperature 4°C for 24 h. If the accuracy deviation was within ± 15%, the PUR was considered stable.

[2] = Pharmacokinetics of PUR in rat plasma after single oral administration, UHPLC-MS/MS; assay type: in vivo, male Wistar rats
Procedure: Male Wistar rats (250−270 g) were purchased from the SPF (Beijing) Biotechnology Co., Ltd. (Beijing, China). The rats were then housed in an animal room to adapt to the environment for a week at standard temperature (23−28°C), humidity (50−65%), free diet, and tap water. Rats were fasted for 12 h before pharmacokinetic experiments and allowed free access to water and sugar during sample collection. Both PUR and PLE were dispersed in a 0.5% carboxymethyl cellulose solution and then sonicated to obtain a homogeneous suspension. A whole blood sample was collected from the infraorbital vein and immediately centrifuged at 3,500 rpm for 10 minutes at 4°C to obtain plasma. Plasma was stored at −20°C for later analysis. The experimental protocol was approved by the Animal Experiment Ethics Review Committee of Jiangsu Vocational College of Medicine.
Chromatographic separation was performed using a Waters Acquity UHPLC system with an Acquity HSS T3 column (1.8 μm, 2.1 × 50 mm, Waters, Milford, MA). Mobile phase A consists of 0.1% aqueous formic acid solution, and mobile phase B consists of 0.1% formic acid acetonitrile. The gradient elution was as follows: 0 to 0.5 min, a linear gradient from 10 to 15% B; 0.5 to 2 min, 15 to 40% B; 2 to 4 min, 40 to 80% B; 4.1 to 5 min, 80 to 99% B; 5.1 to 7 min, a linear gradient back to 10% B. The flow rate was 0.3 mL/min. The column temperature was maintained at 40 °C, and the sample storage compartment was maintained at 4°C. Under these conditions, PUR and berberine hydrochloride were eluted at 2.0 and 3.2 minutes, respectively.
Mass spectrometric detection was performed on a Waters TQD tandem mass spectrometer equipped with an electrospray ionization (ESI) source. The mass spectrometer was operated in multiple reaction monitoring (MRM) positive-ion mode and was quantified using the following transitions: m/z 417.1 > 297.0 for PUR and m/z 336.0 > 320.0 for berberine hydrochloride, and the mass fragment spectrum of PUR and berberine hydrochloride is shown in Figure 2. For all transitions, the cone voltage of 35 V and a collision energy of 30 eV for both PUR and berberine hydrochloride were used, as shown in Table 1. The capillary voltage was set at 2.8 kV, and the source temperature was maintained at 500°C with a gas flow rate of 850 L/h. Argon is used as the collision gas. The cone gas flow was set at 50 L/h. Data acquisition were performed with MassLynx^TM software version 4.1, and quantitation was performed using TargetLynx^TM (Waters, Milford, MA, USA).
Rat plasma sample (100 μL) and IS solution (20 μL, 100 ng/mL) were added to a 1.5 mL Eppendorf tube and vortex-mixed for 30 s, followed by adding 500 μL of acetonitrile to precipitate protein. The mixture was then vortex-mixed for 2 min and centrifuged at 10,000 rpm for 10 min. The supernatant was evaporated to dryness under a stream of nitrogen gas. The obtained residue was reconstituted with methanol-water (80 : 20, v/v), then vortex-mixed for 3min and centrifuged at 13,000 rpm for 10 min. Finally, a 2 μL sample of the supernatant was injected into the UHPLC-MS/MS system for analysis.
The validated method was applied to determine the plasma concentration of PUR in rats after single oral administration of PLE at a dose of 763 mg/kg (equivalent to 100.0 mg/kg of PUR, 1 mL/100g BW) or administration of PUR at a dose of 100 mg/kg (1 mL/100g BW). Twelve male Wistar rats were randomly divided into two groups of six rats each and fasted for 12 h before the experiment. The whole blood samples were collected in heparinized tubes through the suborbital vein of rat at 0.25, 0.5, 0.75, 1, 1.5, 2, 3, 4, 6, 8, 12, 24, 36, and 48 h after gavage administration of drugs. The blood samples were immediately centrifuged at 3,500 rpm for 10 min to obtain plasma. Plasma was stored at −20°C until analysis. […]

P-gp = details: after added verapamil (P-gp inhibitor); ref "Studies have found", no number given; cited from earlier work
[3] = parameters: method as in PMID 29099639, PMID 29790819; details: coadministered with PUR, compared with the control group; cited from earlier work
[4] = male, Wistar, PUR in rat plasma, oral PUR 100 mg/kg, n = 6, mean ± SD

For O=c1c(-c2ccc(O)cc2)coc2c([C@@H]3O[C@H](CO)[C@@H](O)[C@H](O)[C@H]3O)c(O)ccc12 [PUR, daidzein-8-C-glucoside], the “increase of intestinal absorption of PUR” value (MRP2) is listed as 2.3 times, the “Stability (RE, %) Postextraction” value ([1]; 8.0 ng/mL) is listed as −7.7% and the “Stability (RE, %) Postextraction” value ([1]; 80.0 ng/mL) is listed as −6.3%. The “Stability (RE, %) Postextraction” value ([1]; 720.0 ng/mL) was 5.9%, the “Stability (RE, %) 23°C–28°C/24 h” value ([1]; 8.0 ng/mL) was 11.5% and the “Stability (RE, %) −20°C/30 day” value ([1]; 8.0 ng/mL) was 11.4%. For the same compound, the “Stability (RE, %) Freeze-thaw (3 cycles)” value ([1]; 8.0 ng/mL) was 9.3%, the “Stability (RE, %) 23°C–28°C/24 h” value ([1]; 80.0 ng/mL) was 6.5% and the “Stability (RE, %) −20°C/30 day” value ([1]; 80.0 ng/mL) was 6.2%. For the same compound, the “Stability (RE, %) Freeze-thaw (3 cycles)” value ([1]; 80.0 ng/mL) was 5.6%, the “Stability (RE, %) 23°C–28°C/24 h” value ([1]; 720.0 ng/mL) was 8.7% and the “Stability (RE, %) −20°C/30 day” value ([1]; 720.0 ng/mL) was −4.7%. The “Stability (RE, %) Freeze-thaw (3 cycles)” value ([1]; 720.0 ng/mL) was −5.1%, the “stability in rat plasma under four tested conditions” value ([1]; three freeze/thaw cycles, −20°C for 30 days, 23°C to 28°C for 24 h, postextraction 4°C for 24 h, stable if deviation within ± 15%) was “stable” and the AUC(0-inf) [2, 4] was 220 ± 64.4 ng·h/mL. It also gave an AUC(0-t) [2, 4] of 213 ± 61.9 ng·h/mL, a Tmax [2, 4] of 1.46 ± 1.08 h and a half-life [2, 4] of 1.6 ± 0.38 h. It also gave a CL/F ([2]; male, Wistar, PUR in rat plasma, oral PUR 100 mg/kg, n = 6, mean ± SD, read-out: CLz/F (converted)) of 509 L/h/kg, an MRT last ([2]; male, Wistar, PUR in rat plasma, oral PUR 100 mg/kg, n = 6, mean ± SD, read-out: MRT 0-t) of 2.22 ± 0.46 h and a Vd/F ([2]; male, Wistar, PUR in rat plasma, oral PUR 100 mg/kg, n = 6, mean ± SD, read-out: Vz/F) of 1200 ± 403 L/kg. For the same compound, the Cmax ([2]; male, Wistar, rat plasma, oral puerarin 100 mg/kg, abstract, read-out: maximum concentration (Cmax) of puerarin) was 102 ± 41.8 ng/mL, the “shape of plasma concentration-time curve of PUR” value ([2]; oral pure PUR 100 mg/kg, rats) was “no double-peak phenomenon” and the “increase of intestinal absorption of PUR” value (P-gp) was 2.7 times.

In the case of CC(C)(O)[C@@H]1CC[C@](C)([C@H]2[C@@H](O)C[C@@]3(C)[C@@H]4C[C@H](O[C@@H]5O[C@H](CO)[C@@H](O)[C@H](O)[C@H]5O)[C@H]5C(C)(C)[C@@H](O[C@@H]6OC[C@@H](O)[C@H](O)[C@H]6O)CC[C@@]56C[C@@]46CC[C@]23C)O1 [astragaloside IV], the “effect on Tmax, Cmax, and AUC0-t of PUR” value [3] is given as “significantly reduce”.

For CC1(C)[C@@H](O[C@H]2O[C@H](C(=O)O)[C@@H](O)[C@H](O)[C@H]2O[C@@H]2O[C@H](C(=O)O)[C@@H](O)[C@H](O)[C@H]2O)CC[C@]2(C)[C@H]3C(=O)C=C4[C@@H]5C[C@@](C)(C(=O)O)CC[C@]5(C)CC[C@@]4(C)[C@]3(C)CC[C@@H]12 [glycyrrhizin], the “effect on Tmax, Cmax, and AUC0-t of PUR” value [3] is listed as “significantly reduce”.

Reference: publication PMC7178524, “Comparative Pharmacokinetic Profiles of Puerarin in Rat Plasma by UHPLC-MS/MS after Oral Administration of Pueraria lobata Extract and Pure Puerarin” (Journal of Analytical Methods in Chemistry, 2020)
